Cc1c(N)c(=O)n(-c2ccccc2)n1C
solubility (mole fraction)
Settings | in acetone | in ethanol | in ethyl acetate | in isopropanol | in methanol | in n-butanol | in n-propanol | in sec-butanol | in water
299.05 K | 0.37 | 0.22 | 0.08 | 0.19 | 0.23 | 0.15 | 0.21 | 0.14 | 0.13
303.15 K | 0.4 | 0.25 | 0.09 | 0.22 | 0.25 | 0.17 | 0.24 | 0.16 | 0.15
307.25 K | 0.43 | 0.28 | 0.11 | 0.25 | 0.28 | 0.19 | 0.28 | 0.18 | 0.17
311.05 K | 0.44 | 0.31 | 0.13 | 0.29 | 0.31 | 0.21 | 0.31 | 0.2 | 0.19
315.15 K | 0.47 | 0.35 | 0.15 | 0.32 | 0.34 | 0.24 | 0.35 | 0.23 | 0.22
321.05 K | 0.52 | 0.41 | 0.2 | 0.38 | 0.39 | 0.29 | 0.41 | 0.27 | 0.27
327.15 K | 0.55 | 0.48 | 0.25 | 0.45 | 0.44 | 0.34 | 0.46 | 0.31 | 0.33
338.35 K | 0.62 | 0.6 | 0.36 | 0.57 | 0.57 | 0.46 | 0.59 | 0.41 | 0.44

Source: BigSolDB 2.1
